Where a name gives a salt, the structure may show the parent alone.
What was measured:
Details in all cases: exposure time: 15 min to 3 h acute
Dugesia japonica [1] = assay: crawl-out incidence (% planarians); higher = higher incidence or increase relative to vehicle control
Procedure: (§1)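 Adult asexual Dugesia japonica planarians (1 per well, 48-well plate, n=24 over technical triplicates) were exposed acutely (15 min to 3 h) to each compound (0.5% DMSO or water vehicle) and screened on a robotic platform for crawl-out, stickiness, body shape, phototaxis, noxious-heat scrunching and locomotion endpoints. Binary endpoints are incidence rate x100. Continuous endpoints are the median response normalised to the plate vehicle median, as % change or difference. Negative incidences after vehicle subtraction were set to 0.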

Dugesia japonica [2] = assay: speed in dark vs vehicle (% change vs vehicle); higher = higher incidence or increase relative to vehicle control
Procedure: as §1, with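 “x100 normalised to in-plate vehicle controls.” for “x100.”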

Dugesia japonica [3] = assay: C-shape incidence (% planarians (vehicle-normalised)); higher = higher incidence or increase relative to vehicle control
Procedure, shortened: (§2)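 Single D. japonica planarians, fasted 5–7 days, sat in 200 μL per well of sealed 48-well plates and were screened 15 minutes–3 hours after exposure to at least 5 concentrations. Shapes were scored by hand and blind. The reported value is the incidence of a particular shape, or of any abnormal shape, ×100, set against in-plate vehicle controls with negatives taken as 0.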

Dugesia japonica [4] = assay: corkscrew incidence (% planarians (vehicle-normalised)); higher = higher incidence or increase relative to vehicle control
Procedure, shortened: as §2

Dugesia japonica [5] = assay: stickiness incidence (% planarians (vehicle-normalised)); higher = higher incidence or increase relative to vehicle control
Procedure, shortened: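 Stickiness was scored as a yes-or-no outcome in fasted Dugesia japonica planarians, and incidence was normalised to the vehicle incidence on the same plate. Each worm sat alone in a well of a sealed 48-well plate holding 200 μL of solution and was tested 15 min–3 h after exposure to half- or quarter-log concentration series, with 0.5% DMSO or water as vehicle. Technical triplicates were pooled (n = 24), negative values were set to 0, values were multiplied by 100, and worms that crawled out were excluded.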

Dugesia japonica [6] = assay: hyperkinesis incidence (% planarians (vehicle-normalised)); higher = higher incidence or increase relative to vehicle control
Procedure, shortened: as §2

Dugesia japonica [7] = assay: speed first 30 s blue light vs vehicle (% change vs vehicle); higher = higher incidence or increase relative to vehicle control
Procedure, shortened: (§3)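 For each worm, crawling speed under dark or blue-light conditions was tracked automatically and expressed against the median of that plate's vehicle worms, and the reported value is the median percent change. The worms were intact, fasted Dugesia japonica held one per well in 200 μL in a 48-well plate, exposed in 0.5% DMSO or water vehicle and tested from 15 min to 3 h afterwards. Eight were used per concentration per plate across technical triplicate (n = 24), excluding any that crawled out.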

Dugesia japonica [8] = assay: speed second 30 s blue light vs vehicle (% change vs vehicle); higher = higher incidence or increase relative to vehicle control
Procedure, shortened: as §3

Dugesia japonica [9] = assay: pharynx extrusion incidence (% planarians (vehicle-normalised)); higher = higher incidence or increase relative to vehicle control
Procedure, shortened: (§4)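 Pharynx extrusion was scored manually and blind as a body-shape category in intact, fasted Dugesia japonica, one per well of a 48-well plate in 200 μL. Worms were tested 15 min to 3 h after exposure in 0.5% DMSO or water vehicle. Eight worms per concentration per plate were run in technical triplicate (n = 24). The incidence rate ×100 was normalised to in-plate vehicle controls, negatives were set to 0, and worms that crawled out were excluded.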

Dugesia japonica [10] = assay: loss of phototaxis incidence (% planarians (vehicle-normalised)); higher = higher incidence or increase relative to vehicle control
Procedure, shortened: as §4, with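 “Loss of phototaxis” for “Pharynx extrusion”, “scored” for “scored manually and blind”, “yes/no endpoint” for “body-shape category”, “vehicle, using automated object tracking.” for “vehicle.”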

Dugesia japonica [11] = assay: total locomotor bursts minus vehicle (bursts difference vs vehicle); higher = higher incidence or increase relative to vehicle control
Procedure, shortened: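 Planarians of the species Dugesia japonica, fasted beforehand, received half- or quarter-log concentration series in 0.5% DMSO or water, one animal per well of a sealed 48-well plate holding 200 μL solution. They were tested 15 min–3 h after exposure in technical triplicates totalling n = 24. Each animal's count of total locomotor bursts, an unstimulated behaviour obtained by image-based object tracking, had the plate vehicle-control median subtracted without ×100 scaling. The figure given is the median normalised response, with crawled-out worms excluded.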

Dugesia japonica [12] = assay: noxious heat displacement strength vs vehicle (% change vs vehicle); higher = higher incidence or increase relative to vehicle control
Procedure, shortened: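 Values are the median percent change in displacement strength under noxious heat, scored by automated object tracking in the scrunching assay with intact, fasted Dugesia japonica. Each worm was placed alone in a well of a 48-well plate in 200 μL and tested 15 min to 3 h after exposure in 0.5% DMSO or water vehicle. Eight worms per concentration per plate were run in technical triplicate (n = 24), with each worm normalised to the plate's vehicle median and worms that crawled out excluded.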

Dugesia japonica [13] = assay: contracted body shape incidence (% planarians (vehicle-normalised)); higher = higher incidence or increase relative to vehicle control
Procedure, shortened: as §2

Dugesia japonica [14] = assay: anxiety (time in outer well region) vs vehicle (% change vs vehicle); higher = higher incidence or increase relative to vehicle control
Procedure, shortened: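 The value is the median normalized time that planarians spent in the outer portion of the well. D. japonica worms, fasted 5–7 days, were held singly in 200 μL per well of sealed 48-well plates at at least 5 concentrations (n = 24 per concentration) and screened within 15 minutes–3 hours. Each worm's response was divided by, or reduced by, the plate vehicle median and then multiplied by 100, and worms that crawled out were left out.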

Dugesia japonica [15] = assay: any abnormal body shape incidence (% planarians (vehicle-normalised)); higher = higher incidence or increase relative to vehicle control
Procedure, shortened: as §2

Dugesia japonica [16] = assay: resting fraction in dark vs vehicle (difference in fraction x100 vs vehicle); higher = higher incidence or increase relative to vehicle control
Procedure, shortened: (§5)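 The resting fraction, in the dark or under blue light, comes from automated tracking of intact, fasted Dugesia japonica. Worms sat singly in wells of a 48-well plate in 200 μL and were tested 15 min to 3 h after exposure in 0.5% DMSO or water vehicle. The plate's vehicle median was subtracted from each worm and the difference multiplied by 100, then the median was reported after excluding worms that crawled out.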

Dugesia japonica [17] = assay: loss of heat-induced scrunching incidence (% planarians (vehicle-normalised)); higher = higher incidence or increase relative to vehicle control
Procedure, shortened: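 Planarians of the species D. japonica, fasted for 5–7 days, were placed singly in wells of sealed 48-well plates in 200 μL and exposed to at least 5 concentrations, 24 worms per concentration in technical triplicates. Scrunching in response to a noxious heat stimulus was tested within 15 minutes–3 hours, and any worm that crawled out was excluded. The reported figure is the incidence of non-scrunching worms, normalised to vehicle controls on the same plate. This incidence is given ×100, with negatives set to 0.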

Dugesia japonica [18] = assay: resting fraction in blue light vs vehicle (difference in fraction x100 vs vehicle); higher = higher incidence or increase relative to vehicle control
Procedure, shortened: as §5

Dugesia japonica [19] = assay: crawl-out incidence (% planarians); higher = higher incidence or increase relative to vehicle control; remark: listed apart in the source
Dugesia japonica [20] = assay: speed in dark vs vehicle (% change vs vehicle); higher = higher incidence or increase relative to vehicle control; remark: listed apart in the source
Procedure, shortened: as §3

O=C1CCc2ccc(OCCCCN3CCN(c4cccc(Cl)c4Cl)CC3)cc2N1 [aripiprazole] (1 µM)
crawl-out incidence (Dugesia japonica [1]): 0
speed in dark (Dugesia japonica [2]): 42.8
C-shape incidence (Dugesia japonica [3]): 0
corkscrew incidence (Dugesia japonica [4]): 0
stickiness incidence (Dugesia japonica [5]): ≤ 0
hyperkinesis incidence (Dugesia japonica [6]): 0
speed first 30 s blue light (Dugesia japonica [7]): 26
speed second 30 s blue light (Dugesia japonica [8]): 14.3
pharynx extrusion incidence (Dugesia japonica [9]): 0
loss of phototaxis incidence (Dugesia japonica [10]): 29.2
total locomotor bursts minus vehicle (Dugesia japonica [11]): -5.5
noxious heat displacement strength (Dugesia japonica [12]): 14.8
contracted body shape incidence (Dugesia japonica [13]): 0
anxiety (Dugesia japonica [14]): 1.67
any abnormal body shape incidence (Dugesia japonica [15]): 0
resting fraction in dark (Dugesia japonica [16]): -2.8
loss of heat-induced scrunching incidence (Dugesia japonica [17]): ≤ 0
resting fraction in blue light (Dugesia japonica [18]): -0.33

O=C(CCCN1CCC(O)(c2ccc(Br)cc2)CC1)c1ccc(F)cc1 [bromperidol] (1 µM)
crawl-out incidence (Dugesia japonica [1]): 12.5
speed in dark (Dugesia japonica [2]): -18.6
C-shape incidence (Dugesia japonica [3]): 0
corkscrew incidence (Dugesia japonica [4]): 4.35
stickiness incidence (Dugesia japonica [5]): ≤ 0
hyperkinesis incidence (Dugesia japonica [6]): 17.4
speed first 30 s blue light (Dugesia japonica [7]): -39.2
speed second 30 s blue light (Dugesia japonica [8]): -17.1
pharynx extrusion incidence (Dugesia japonica [9]): 0
loss of phototaxis incidence (Dugesia japonica [10]): ≤ 0
total locomotor bursts minus vehicle (Dugesia japonica [11]): 2.5
noxious heat displacement strength (Dugesia japonica [12]): -35.1
contracted body shape incidence (Dugesia japonica [13]): 0
anxiety (Dugesia japonica [14]): 7.55
any abnormal body shape incidence (Dugesia japonica [15]): 17.4
resting fraction in dark (Dugesia japonica [16]): 14.6
loss of heat-induced scrunching incidence (Dugesia japonica [17]): 30.4
resting fraction in blue light (Dugesia japonica [18]): 17.6

CC(NC(C)(C)C)C(=O)c1cccc(Cl)c1 (stereo unspecified) [bupropion] (10 µM)
crawl-out incidence (Dugesia japonica [1]): 0
speed in dark (Dugesia japonica [2]): -21.4
C-shape incidence (Dugesia japonica [3]): 0
corkscrew incidence (Dugesia japonica [4]): 0
stickiness incidence (Dugesia japonica [5]): ≤ 0
hyperkinesis incidence (Dugesia japonica [6]): 0
speed first 30 s blue light (Dugesia japonica [7]): -36.3
speed second 30 s blue light (Dugesia japonica [8]): 0.8
pharynx extrusion incidence (Dugesia japonica [9]): 0
loss of phototaxis incidence (Dugesia japonica [10]): 12.5
total locomotor bursts minus vehicle (Dugesia japonica [11]): -6
noxious heat displacement strength (Dugesia japonica [12]): -1.43
contracted body shape incidence (Dugesia japonica [13]): 0
anxiety (Dugesia japonica [14]): 3.29
any abnormal body shape incidence (Dugesia japonica [15]): 0
resting fraction in dark (Dugesia japonica [16]): 34.4
loss of heat-induced scrunching incidence (Dugesia japonica [17]): 4.17
resting fraction in blue light (Dugesia japonica [18]): 12.6

O=C1CC2(CCCC2)CC(=O)N1CCCCN1CCN(c2ncccn2)CC1 [buspirone] (1 µM)
crawl-out incidence (Dugesia japonica [1]): 0
speed in dark (Dugesia japonica [2]): 11.8
C-shape incidence (Dugesia japonica [3]): 4.17
corkscrew incidence (Dugesia japonica [4]): 0
stickiness incidence (Dugesia japonica [5]): ≤ 0
hyperkinesis incidence (Dugesia japonica [6]): 8.33
speed first 30 s blue light (Dugesia japonica [7]): -6.54
speed second 30 s blue light (Dugesia japonica [8]): -19.1
pharynx extrusion incidence (Dugesia japonica [9]): 0
loss of phototaxis incidence (Dugesia japonica [10]): 16.7
total locomotor bursts minus vehicle (Dugesia japonica [11]): 0.5
noxious heat displacement strength (Dugesia japonica [12]): -21.9
contracted body shape incidence (Dugesia japonica [13]): 0
anxiety (Dugesia japonica [14]): 3.11
any abnormal body shape incidence (Dugesia japonica [15]): 12.5
resting fraction in dark (Dugesia japonica [16]): -6.06
loss of heat-induced scrunching incidence (Dugesia japonica [17]): ≤ 0
resting fraction in blue light (Dugesia japonica [18]): 4.28

CN(C)CCCC1(c2ccc(F)cc2)OCc2cc(C#N)ccc21 (stereo unspecified) [citalopram hydrobromide] (10 µM)
crawl-out incidence (Dugesia japonica [1]): 0
speed in dark (Dugesia japonica [2]): -7.94
C-shape incidence (Dugesia japonica [3]): 0
corkscrew incidence (Dugesia japonica [4]): 0
stickiness incidence (Dugesia japonica [5]): 12.5
hyperkinesis incidence (Dugesia japonica [6]): 8.33
speed first 30 s blue light (Dugesia japonica [7]): 9.22
speed second 30 s blue light (Dugesia japonica [8]): -12.8
pharynx extrusion incidence (Dugesia japonica [9]): 0
loss of phototaxis incidence (Dugesia japonica [10]): 16.7
total locomotor bursts minus vehicle (Dugesia japonica [11]): 1.75
noxious heat displacement strength (Dugesia japonica [12]): -8.3
contracted body shape incidence (Dugesia japonica [13]): 0
anxiety (Dugesia japonica [14]): 5.9
any abnormal body shape incidence (Dugesia japonica [15]): 12.5
resting fraction in dark (Dugesia japonica [16]): 1.41
loss of heat-induced scrunching incidence (Dugesia japonica [17]): 25
resting fraction in blue light (Dugesia japonica [18]): 0.82

CN1CCN(C2=Nc3cc(Cl)ccc3Nc3ccccc32)CC1 [clozapine] (1 µM)
crawl-out incidence (Dugesia japonica [1]): 0
speed in dark (Dugesia japonica [2]): -73.5
C-shape incidence (Dugesia japonica [3]): 0
corkscrew incidence (Dugesia japonica [4]): 0
stickiness incidence (Dugesia japonica [5]): 4.17
hyperkinesis incidence (Dugesia japonica [6]): 8.33
speed first 30 s blue light (Dugesia japonica [7]): -82
speed second 30 s blue light (Dugesia japonica [8]): -79.8
pharynx extrusion incidence (Dugesia japonica [9]): 0
loss of phototaxis incidence (Dugesia japonica [10]): 8.33
total locomotor bursts minus vehicle (Dugesia japonica [11]): 38.8
noxious heat displacement strength (Dugesia japonica [12]): -43.5
contracted body shape incidence (Dugesia japonica [13]): 4.17
anxiety (Dugesia japonica [14]): -1.98
any abnormal body shape incidence (Dugesia japonica [15]): 8.33
resting fraction in dark (Dugesia japonica [16]): 55.3
loss of heat-induced scrunching incidence (Dugesia japonica [17]): 4.17
resting fraction in blue light (Dugesia japonica [18]): 36.4

CN[C@H]1CC[C@@H](c2ccc(Cl)c(Cl)c2)c2ccccc21 [sertraline hydrochloride] (10 µM)
crawl-out incidence (Dugesia japonica [19]): 0
speed in dark (Dugesia japonica [20]): 24.4
C-shape incidence (Dugesia japonica [3]): 0
corkscrew incidence (Dugesia japonica [4]): 0
stickiness incidence (Dugesia japonica [5]): 4.17
hyperkinesis incidence (Dugesia japonica [6]): 0
speed first 30 s blue light (Dugesia japonica [7]): -16.8
speed second 30 s blue light (Dugesia japonica [8]): 0.96
pharynx extrusion incidence (Dugesia japonica [9]): 0
loss of phototaxis incidence (Dugesia japonica [10]): ≤ 0
total locomotor bursts minus vehicle (Dugesia japonica [11]): -9.5
noxious heat displacement strength (Dugesia japonica [12]): 27
contracted body shape incidence (Dugesia japonica [13]): 0
anxiety (Dugesia japonica [14]): 1.96
any abnormal body shape incidence (Dugesia japonica [15]): 0
resting fraction in dark (Dugesia japonica [16]): -1.57
loss of heat-induced scrunching incidence (Dugesia japonica [17]): 33.3
resting fraction in blue light (Dugesia japonica [18]): 0.73
